Tests used:
Assay type in all cases: in vivo
[1] = tested on: redroot pigweed (Amaranthus retroflexus); test: Test G Pre-Emergence Protocol; settings: Amaranthus retroflexus, pre-emergence, 312 h, evaluated after 13 days
Method in brief: (§1)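 Seeds were sown in standard soil and kept one day in a glasshouse (24/16° C day/night, 14 h light, 65% humidity), then sprayed with compound in acetone/water (50:50) containing 0.5% Tween 20 at 15.625, 62.5 or 250 g/ha. Damage was scored after 13 days (0 = none, 100 = total).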

[2] = tested on: ivy-leaved morning glory (Ipomoea hederacea); test: Test G Pre-Emergence Protocol; settings: Ipomoea, pre-emergence, 312 h, evaluated after 13 days
Method in brief: as §1

[3] = tested on: barnyardgrass (Echinochloa crus-galli); test: Test G Pre-Emergence Protocol; settings: Echinochloa crus-galli, pre-emergence, 312 h, evaluated after 13 days
Method in brief: as §1

[4] = tested on: giant foxtail (Setaria faberi); test: Test G Pre-Emergence Protocol; settings: Setaria faberi, pre-emergence, 312 h, evaluated after 13 days
Method in brief: as §1

[5] = tested on: velvetleaf (Abutilon theophrasti); test: Test G Pre-Emergence Protocol; settings: Abutilon theophrasti, pre-emergence, 312 h, evaluated after 13 days
Method in brief: as §1

corn (Zea mays) [6] = test: Test G Pre-Emergence Protocol; settings: Zea mays, pre-emergence, 312 h, evaluated after 13 days
Method in brief: as §1

[7] = tested on: redroot pigweed (Amaranthus retroflexus); test: Test G Post-Emergence Protocol; settings: Amaranthus retroflexus, post-emergence, 312 h
Method in brief: (§2)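 Foliar application was made 8 days after sowing, using an aqueous spray of the active in acetone/water (50:50) with 0.5% Tween 20, at doses of 15.625, 62.5 or 250 g/ha. Injury was assessed 13 days later, where 100 meant the plant was fully damaged.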

[8] = tested on: ivy-leaved morning glory (Ipomoea hederacea); test: Test G Post-Emergence Protocol; settings: Ipomoea, post-emergence, 312 h
Method in brief: as §2

[9] = tested on: barnyardgrass (Echinochloa crus-galli); test: Test G Post-Emergence Protocol; settings: Echinochloa crus-galli, post-emergence, 312 h
Method in brief: as §2

[10] = tested on: giant foxtail (Setaria faberi); test: Test G Post-Emergence Protocol; settings: Setaria faberi, post-emergence, 312 h
Method in brief: as §2

[11] = tested on: velvetleaf (Abutilon theophrasti); test: Test G Post-Emergence Protocol; settings: Abutilon theophrasti, post-emergence, 312 h
Method in brief: as §2

corn (Zea mays) [12] = test: Test G Post-Emergence Protocol; settings: Zea mays, post-emergence, 312 h
Method in brief: as §2

CN1C[C@@H](c2cc(Cl)nc(Cl)c2)[C@H](C(=O)Nc2cccc(F)c2F)C1=O (racemic) [Compound 1494]
pest or weed control at 15.625 g/ha ([1]; 15.625 g ai/ha, read-out: Pigweed, Redroot damage rating (100=total damage to plant; 0=no damage to plant)): 0% | pest or weed control at 62.5 g/ha ([1]; 62.5 g ai/ha, 100=total damage to plant, 0=no damage to plant, read-out: plant damage rating, Pigweed, Redroot): 0% | pest or weed control at 250 g/ha ([1]; 250 g ai/ha, read-out: Pigweed, Redroot damage rating (100=total damage to plant; 0=no damage to plant)): 30% | pest or weed control at 15.625 g/ha ([2]; 15.625 g ai/ha, read-out: Morning-glory, Ivy-leaved damage rating (100=total damage to plant; 0=no damage to plant)): 0% | pest or weed control at 62.5 g/ha ([2]; 62.5 g ai/ha, 100=total damage to plant, 0=no damage to plant, read-out: plant damage rating, Morningglory, Ivy-leaved): 0% | pest or weed control at 250 g/ha ([2]; 250 g ai/ha, read-out: Morningglory, Ivy-leaved damage rating (100=total damage to plant; 0=no damage to plant)): 70% | pest or weed control at 15.625 g/ha ([3]; 15.625 g ai/ha, read-out: Barnyard grass damage rating (100=total damage to plant; 0=no damage to plant)): 80% | pest or weed control at 62.5 g/ha ([3]; 62.5 g ai/ha, 100=total damage to plant, 0=no damage to plant, read-out: plant damage rating, Barnyardgrass): 80% | pest or weed control at 250 g/ha ([3]; 250 g ai/ha, read-out: Barnyardgrass damage rating (100=total damage to plant; 0=no damage to plant)): 90% | pest or weed control at 15.625 g/ha ([4]; 15.625 g ai/ha, read-out: Foxtail, Giant damage rating (100=total damage to plant; 0=no damage to plant)): 70% | pest or weed control at 62.5 g/ha ([4]; 62.5 g ai/ha, 100=total damage to plant, 0=no damage to plant, read-out: plant damage rating, Foxtail, Giant): 80% | pest or weed control at 250 g/ha ([4]; 250 g ai/ha, read-out: Foxtail, Giant damage rating (100=total damage to plant; 0=no damage to plant)): 80% | pest or weed control at 15.625 g/ha ([5]; 15.625 g ai/ha, read-out: Velvetleaf damage rating (100=total damage to plant; 0=no damage to plant)): 0% | pest or weed control at 62.5 g/ha ([5]; 62.5 g ai/ha, 100=total damage to plant, 0=no damage to plant, read-out: plant damage rating, Velvetleaf): 0% | pest or weed control at 250 g/ha ([5]; 250 g ai/ha, read-out: Velvetleaf damage rating (100=total damage to plant; 0=no damage to plant)): 0% | plant injury at 15.625 g/ha (corn (Zea mays) [6]; 15.625 g ai/ha, read-out: Corn damage rating (100=total damage to plant; 0=no damage to plant)): 0% | plant injury at 62.5 g/ha (corn (Zea mays) [6]; 62.5 g ai/ha, 100=total damage to plant, 0=no damage to plant, read-out: plant damage rating, Corn): 20% | plant injury at 250 g/ha (corn (Zea mays) [6]; 250 g ai/ha, read-out: Corn damage rating (100=total damage to plant; 0=no damage to plant)): 60% | pest or weed control at 15.625 g/ha ([7]; 15.625 g ai/ha, evaluated after 13 days (100=total damage to plant; 0=no damage to plant), read-out: Pigweed, Redroot damage rating): 0% | pest or weed control at 62.5 g/ha ([7]; 62.5 g ai/ha, evaluated after 13 days, read-out: Pigweed, Redroot damage rating (100=total damage to plant; 0=no damage to plant)): 0% | pest or weed control at 250 g/ha ([7]; 250 g ai/ha, evaluated after 13 days, read-out: damage to plant, Pigweed, Redroot (100=total damage to plant; 0=no damage to plant)): 0% | pest or weed control at 15.625 g/ha ([8]; 15.625 g ai/ha, evaluated after 13 days (100=total damage to plant; 0=no damage to plant), read-out: Morningglory, Ivy-leaved damage rating): 10% | pest or weed control at 62.5 g/ha ([8]; 62.5 g ai/ha, evaluated after 13 days, read-out: Morningglory, Ivy-leaved damage rating (100=total damage to plant; 0=no damage to plant)): 40% | pest or weed control at 250 g/ha ([8]; 250 g ai/ha, evaluated after 13 days, read-out: damage to plant, Morningglory, Ivy-leaved (100=total damage to plant; 0=no damage to plant)): 50% | pest or weed control at 15.625 g/ha ([9]; 15.625 g ai/ha, evaluated after 13 days (100=total damage to plant; 0=no damage to plant), read-out: Barnyardgrass damage rating): 30% | pest or weed control at 62.5 g/ha ([9]; 62.5 g ai/ha, evaluated after 13 days, read-out: Barnyardgrass damage rating (100=total damage to plant; 0=no damage to plant)): 60% | pest or weed control at 250 g/ha ([9]; 250 g ai/ha, evaluated after 13 days, read-out: damage to plant, Barnyardgrass (100=total damage to plant; 0=no damage to plant)): 50% | pest or weed control at 15.625 g/ha ([10]; 15.625 g ai/ha, evaluated after 13 days (100=total damage to plant; 0=no damage to plant), read-out: Foxtail, Giant damage rating): 60% | pest or weed control at 62.5 g/ha ([10]; 62.5 g ai/ha, evaluated after 13 days, read-out: Foxtail, Giant damage rating (100=total damage to plant; 0=no damage to plant)): 60% | pest or weed control at 250 g/ha ([10]; 250 g ai/ha, evaluated after 13 days, read-out: damage to plant, Foxtail, Giant (100=total damage to plant; 0=no damage to plant)): 60% | pest or weed control at 15.625 g/ha ([11]; 15.625 g ai/ha, evaluated after 13 days (100=total damage to plant; 0=no damage to plant), read-out: Velvetleaf damage rating): 0% | pest or weed control at 62.5 g/ha ([11]; 62.5 g ai/ha, evaluated after 13 days, read-out: Velvetleaf damage rating (100=total damage to plant; 0=no damage to plant)): 0% | pest or weed control at 250 g/ha ([11]; 250 g ai/ha, evaluated after 13 days, read-out: damage to plant, Velvetleaf (100=total damage to plant; 0=no damage to plant)): 30% | plant injury at 15.625 g/ha (corn (Zea mays) [12]; 15.625 g ai/ha, evaluated after 13 days (100=total damage to plant; 0=no damage to plant), read-out: Corn damage rating): 10% | plant injury at 62.5 g/ha (corn (Zea mays) [12]; 62.5 g ai/ha, evaluated after 13 days, read-out: Corn damage rating (100=total damage to plant; 0=no damage to plant)): 30% | plant injury at 250 g/ha (corn (Zea mays) [12]; 250 g ai/ha, evaluated after 13 days, read-out: damage to plant, Corn (100=total damage to plant; 0=no damage to plant)): 80%

Reference: patent US12077503B2, “Substituted cyclic amides and their use as herbicides” (FMC CORPORATION, priority 2015, dated 2024)
